One test addresses T1, Okp1(EYAA)‐Ame1 (Saccharomyces cerevisiae, UniProt P38313+P53298, E235A/Y238A).
T1 construct: Full‐length mutant Okp1‐Ame1 complex (EYAA or I195Y as indicated) was tested for its association with FITC‐Cse4^END; 6His (C); made in house; host or cells: E. coli
The test is described as follows: biochemical. The format is binding. The procedure:
(§1) Results of a GST pulldown assay are shown. • The minimal Okp1‐Ame1 complex used for crystallography was tested for its association with FITC‐Cse4^END in a fluorescence polarization experiment.
(§2) Fluorescence polarization assays
(§3) FITC‐Cse4^28‐60 peptide was synthesized by the Tufts University Core Facility. 20 nM of FITC‐Cse4^28‐60 peptide was used in all reactions, and Okp1‐Ame1 concentrations were varied to determine the dissociation constant (K D ), in reaction buffer containing 100 mM HEPES, pH 7.5, 200 mM NaCl, 1 mM TCEP (full‐length Okp1‐Ame1 complex) or reaction buffer with 600 mM NaCl (truncated Okp1‐Ame1 complex).

In another test the target is T2, Okp1‐Ame1(I195Y) (Saccharomyces cerevisiae, UniProt P38313+P53298, I195Y).
T2 construct: Full‐length mutant Okp1‐Ame1 complex (EYAA or I195Y as indicated) was tested for its association with FITC‐Cse4^END; 6His (C); made in house; host or cells: E. coli
Put plainly: biochemical. The test is classed as binding. The procedure:
as §1, §2, §3

A value given as a limit tells only on which side of the number the result lay.

T1 sequence (P38313 whole entry): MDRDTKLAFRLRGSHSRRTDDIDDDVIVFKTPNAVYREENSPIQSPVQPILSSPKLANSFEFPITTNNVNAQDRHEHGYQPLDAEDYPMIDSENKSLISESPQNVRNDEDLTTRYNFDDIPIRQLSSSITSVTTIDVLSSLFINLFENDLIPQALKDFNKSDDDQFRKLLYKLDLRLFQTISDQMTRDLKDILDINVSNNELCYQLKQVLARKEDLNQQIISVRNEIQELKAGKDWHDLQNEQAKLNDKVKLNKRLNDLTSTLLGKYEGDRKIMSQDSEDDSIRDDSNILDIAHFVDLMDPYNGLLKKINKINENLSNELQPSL
T1 sequence (P53298 whole entry E235A/Y238A): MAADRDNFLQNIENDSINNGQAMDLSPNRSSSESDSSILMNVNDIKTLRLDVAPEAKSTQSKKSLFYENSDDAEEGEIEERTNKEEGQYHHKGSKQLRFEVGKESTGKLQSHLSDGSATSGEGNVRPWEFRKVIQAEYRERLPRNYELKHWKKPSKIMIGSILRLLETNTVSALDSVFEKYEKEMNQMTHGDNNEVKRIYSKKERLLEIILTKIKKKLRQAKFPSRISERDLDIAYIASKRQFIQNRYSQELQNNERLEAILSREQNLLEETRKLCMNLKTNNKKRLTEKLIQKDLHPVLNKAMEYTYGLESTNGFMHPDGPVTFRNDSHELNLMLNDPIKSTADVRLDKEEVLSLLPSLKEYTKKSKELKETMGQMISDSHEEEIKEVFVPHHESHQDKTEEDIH
T2 sequence (P38313 whole entry I195Y): as the sequence (P38313 whole entry) above, with I195Y counted along it
T2 sequence (P53298 whole entry): as the sequence (P53298 whole entry E235A/Y238A) above, with A235E, A238Y counted along it

What is called Kd is a measure of binding affinity in units of concentration. With `CC[C@H](C)[C@H](NC(=O)[C@H](CO)NC(=O)[C@H](CCC(N)=O)NC(=O)[C@H](CCC(N)=O)NC(=O)[C@H](CC(=O)O)NC(=O)CNC(=O)[C@H](C)N)C(=O)N[C@@H](CC(N)=O)C(=O)N[C@@H](CC(=O)O)C(=O)N[C@@H](CCCNC(=N)N)C(=O)N[C@@H](C)C(=O)N[C@@H](CC(C)C)C(=O)N[C@@H](CO)C(=O)N[C@@H](CC(C)C)C(=O)N[C@@H](CC(C)C)C(=O)N[C@@H](CCC(N)=O)C(=O)N[C@@H](CCCNC(=N)N)C(=O)N[C@H](C(=O)N[C@@H](CCCNC(=N)N)C(=O)N[C@@H](C)C(=O)N[C@H](C(=O)N[C@@H](CCCCN)C(=O)N[C@@H](CC(N)=O)C(=O)N[C@@H](CC(C)C)C(=O)N[C@@H](Cc1ccccc1)C(=O)N1CCC[C@H]1C(=O)N[C@@H](CCCNC(=N)N)C(=O)N[C@@H](CCCNC(=N)N)C(=O)N[C@@H](CCC(=O)O)C(=O)N[C@@H](CCC(=O)O)C(=O)N[C@@H](CCCNC(=N)N)C(=O)N[C@@H](CCCNC(=N)N)C(=O)N[C@@H](CCCNC(=N)N)C(=O)O)[C@@H](C)O)[C@@H](C)O` [Cse4^END], the Kd on Okp1(EYAA)‐Ame1 and on Okp1‐Ame1(I195Y) was > 3 µM each time.

Source of the values: article PMC10702835, “Recognition of centromere‐specific histone Cse4 by the inner kinetochore Okp1‐Ame1 complex” (EMBO Reports, 2023).
